Measured values: ChEMBL document CHEMBL1154825, “Schweinfurthins I and J from Macaranga schweinfurthii” (2010)

Columns and labels:
Assay type in all cases: functional
BT-549 = test: Growth inhibition of human BT549 cells
CAKI-1 = test: Growth inhibition of human Caki1 cells
RPMI-8226 = test: Growth inhibition of human RPMI8226 cells
HCT-116 = test: Growth inhibition of human HCT116 cells
A498 = test: Growth inhibition of human A498 cells
CCRF-CEM = test: Growth inhibition of human CCRF-CEM cells
OVCAR-5 = test: Growth inhibition of human OVCAR5 cells
HCC 2998 = test: Growth inhibition of human HCC2998 cells
HCT-15 = test: Growth inhibition of human HCT15 cells
DU-145 = test: Growth inhibition of human DU145 cells
NCI-H226 = test: Growth inhibition of human NCI-H226 cells
[1] = Growth inhibition of human Hs 578T cells
RXF 393 = test: Growth inhibition of human […] cells
SW-620 = test: Growth inhibition of human SW620 cells
HT-29 = test: Growth inhibition of human HT-29 cells
OVCAR-8 = test: Growth inhibition of human OVCAR8 cells
Malme-3M = test: Growth inhibition of human MALME-3M cells
SN12C = test: Growth inhibition of human SN12C cells
M14 = test: Growth inhibition of human M14 cells
SK-MEL-5 = test: Growth inhibition of human SK-MEL-5 cells
MDA-MB-435 = test: Growth inhibition of human MDA-MB-435 cells
ACHN = test: Growth inhibition of human ACHN cells
NCI-H23 = test: Growth inhibition of human NCI-H23 cells
MDA-MB-231 = test: Growth inhibition of human MDA-MB-231 cells
SK-OV-3 = test: Growth inhibition of human SKOV3 cells
SNB-19 = test: Growth inhibition of human SNB19 cells
SF-295 = test: Growth inhibition of human SF295 cells
SR = test: Growth inhibition of human SR cells
MCF7 = test: Growth inhibition of human MCF7 cells
TK-10 = test: Growth inhibition of human TK10 cells
NCI/ADR-RES = test: Growth inhibition of human NCI/ADR-RES cells
MOLT-4 = test: Growth inhibition of human MOLT4 cells
COLO 205 = test: Growth inhibition of human COLO205 cells
NCI-H460 = test: Growth inhibition of human NCI-H460 cells
SF-539 = test: Growth inhibition of human SF539 cells
MDA-MB-468 = test: Growth inhibition of human MDA-MB-468 cells
786-0 = test: Growth inhibition of human 786-0 cells
NCI-H522 = test: Growth inhibition of human NCI-H522 cells
SK-MEL-2 = test: Growth inhibition of human SK-MEL-2 cells
K562 = test: Growth inhibition of human K562 cells
OVCAR-3 = test: Growth inhibition of human OVCAR-3 cells
SK-MEL-28 = test: Growth inhibition of human SK-MEL-28 cells
U-251 = test: Growth inhibition of human U251 cells
[2] = read-out: pLC50 (the source's name) (converted)

CC(C)=CCC/C(C)=C/Cc1cc(/C=C/c2cc(O)cc(O)c2)ccc1O [SCHWEINFURTHIN I]
GI50 (BT-549): 7.41 µM | LC50 (BT-549): 45.7 µM | TGI (BT-549; read-out: pTGI (converted)): 20 µM | GI50 (CAKI-1): 5.62 µM | CC50 (CAKI-1; [2]): 43.7 µM | TGI (CAKI-1; read-out: pTGI (converted)): 18.6 µM | GI50 (RPMI-8226): 3.98 µM | LC50 (RPMI-8226): 91.2 µM | TGI (RPMI-8226; read-out: pTGI (converted)): 19.1 µM | GI50 (HCT-116): 11 µM | CC50 (HCT-116; [2]): 50.1 µM | TGI (HCT-116; read-out: pTGI (converted)): 23.4 µM | GI50 (A498): 5.01 µM | LC50 (A498): 47.9 µM | TGI (A498; read-out: pTGI (converted)): 20.4 µM | GI50 (CCRF-CEM): 5.37 µM | LC50 (CCRF-CEM): 95.5 µM | TGI (CCRF-CEM; read-out: pTGI (converted)): 25.7 µM | GI50 (OVCAR-5): 17.4 µM | LC50 (OVCAR-5): 72.4 µM | TGI (OVCAR-5; read-out: pTGI (converted)): 35.5 µM | GI50 (HCC 2998): 15.5 µM | LC50 (HCC 2998): 58.9 µM | TGI (HCC 2998; read-out: pTGI (converted)): 30.2 µM | GI50 (HCT-15): 15.8 µM | LC50 (50% lethal concentration) (HCT-15): > 100 µM | TGI (HCT-15; read-out: pTGI (converted)): 58.9 µM | GI50 (DU-145): 12.9 µM | LC50 (DU-145): 51.3 µM | TGI (DU-145; read-out: pTGI (converted)): 25.7 µM | GI50 (NCI-H226): 16.6 µM | LC50 (NCI-H226): 74.1 µM | TGI (NCI-H226; read-out: pTGI (converted)): 35.5 µM | GI50 [1]: 4.07 µM | LC50 [1]: > 100 µM | TGI ([1]; read-out: pTGI (converted)): 26.3 µM | GI50 (RXF 393): 1.78 µM | CC50 (RXF 393; [2]): 7.76 µM | TGI (RXF 393; read-out: pTGI (converted)): 3.72 µM | GI50 (SW-620): 15.8 µM | LC50 (SW-620): > 100 µM | TGI (SW-620; read-out: pTGI (converted)): 43.7 µM | GI50 (HT-29): 12.6 µM | LC50 (HT-29): 69.2 µM | TGI (HT-29; read-out: pTGI (converted)): 29.5 µM | GI50 (OVCAR-8): 13.8 µM | LC50 (OVCAR-8): 70.8 µM | TGI (OVCAR-8; read-out: pTGI (converted)): 30.9 µM | GI50 (Malme-3M): 11.7 µM | LC50 (Malme-3M): 63.1 µM | TGI (Malme-3M; read-out: pTGI (converted)): 26.9 µM | GI50 (SN12C): 13.5 µM | CC50 (SN12C; [2]): 61.7 µM | TGI (SN12C; read-out: pTGI (converted)): 28.8 µM | GI50 (M14): 12.9 µM | CC50 (M14; [2]): 53.7 µM | TGI (M14; read-out: pTGI (converted)): 26.3 µM | GI50 (SK-MEL-5): 4.68 µM | CC50 (SK-MEL-5; [2]): 43.7 µM | TGI (SK-MEL-5; read-out: pTGI (converted)): 17.4 µM | GI50 (MDA-MB-435): 7.24 µM | CC50 (MDA-MB-435; [2]): 53.7 µM | TGI (MDA-MB-435; read-out: pTGI (converted)): 21.9 µM | GI50 (ACHN): 10 µM | CC50 (ACHN; [2]): 49 µM | TGI (ACHN; read-out: pTGI (converted)): 22.4 µM | GI50 (NCI-H23): 11.7 µM | LC50 (NCI-H23): 61.7 µM | TGI (NCI-H23; read-out: pTGI (converted)): 26.9 µM | GI50 (MDA-MB-231): 10.7 µM | LC50 (MDA-MB-231): 63.1 µM | TGI (MDA-MB-231; read-out: pTGI (converted)): 26.3 µM | GI50 (SK-OV-3): 15.5 µM | CC50 (SK-OV-3; [2]): 55 µM | TGI (SK-OV-3; read-out: pTGI (converted)): 29.5 µM | GI50 (SNB-19): 12.6 µM | LC50 (SNB-19): 56.2 µM | TGI (SNB-19; read-out: pTGI (converted)): 26.9 µM | GI50 (SF-295): 0.372 µM | LC50 (SF-295): 51.3 µM | TGI (SF-295; read-out: pTGI (converted)): 15.8 µM | GI50 (SR): 11.2 µM | LC50 (SR): > 100 µM | TGI (SR; read-out: pTGI (converted)): 43.7 µM | GI50 (MCF7): 10 µM | LC50 (MCF7): 63.1 µM | TGI (MCF7; read-out: pTGI (converted)): 25.1 µM | GI50 (TK-10): 14.8 µM | LC50 (TK-10): 56.2 µM | TGI (TK-10; read-out: pTGI (converted)): 28.8 µM | GI50 (NCI/ADR-RES): 9.33 µM | CC50 (NCI/ADR-RES; [2]): 58.9 µM | TGI (NCI/ADR-RES; read-out: pTGI (converted)): 24 µM | GI50 (MOLT-4): 7.24 µM | LC50 (MOLT-4): > 100 µM | TGI (MOLT-4; read-out: pTGI (converted)): 30.2 µM | GI50 (COLO 205): 18.2 µM | LC50 (COLO 205): 64.6 µM | TGI (COLO 205; read-out: pTGI (converted)): 34.7 µM | GI50 (NCI-H460): 10.2 µM | LC50 (NCI-H460): 85.1 µM | TGI (NCI-H460; read-out: pTGI (converted)): 29.5 µM | GI50 (SF-539): 5.13 µM | LC50 (SF-539): 47.9 µM | TGI (SF-539; read-out: pTGI (converted)): 17.8 µM | GI50 (MDA-MB-468): 9.12 µM | CC50 (MDA-MB-468; [2]): 53.7 µM | TGI (MDA-MB-468; read-out: pTGI (converted)): 22.9 µM | GI50 (786-0): 3.55 µM | CC50 (786-0; [2]): 37.2 µM | TGI (786-0; read-out: pTGI (converted)): 12 µM | GI50 (NCI-H522): 11.2 µM | LC50 (NCI-H522): 72.4 µM | TGI (NCI-H522; read-out: pTGI (converted)): 28.2 µM | GI50 (SK-MEL-2): 11.5 µM | LC50 (SK-MEL-2): 56.2 µM | TGI (SK-MEL-2; read-out: pTGI (converted)): 25.7 µM | GI50 (K562): 5.01 µM | LC50 (K562): 72.4 µM | TGI (K562; read-out: pTGI (converted)): 22.4 µM | GI50 (OVCAR-3): 12.3 µM | LC50 (concentration killing 50% of cells) (OVCAR-3): 50.1 µM | TGI (OVCAR-3; read-out: pTGI (converted)): 25.1 µM | GI50 (SK-MEL-28): 10.7 µM | CC50 (SK-MEL-28; [2]): 50.1 µM | TGI (SK-MEL-28; read-out: pTGI (converted)): 23.4 µM | GI50 (U-251): 5.5 µM | LC50 (U-251): 51.3 µM | TGI (U-251; read-out: pTGI (converted)): 20 µM
